Experimental data published in patent US11612661B2 (priority 2019, dated 2023).
Numbered stars: 1 amine (or outer) side, 2 acyl side, 3 side chain; on linkers, the order of the positions; unused ones are H or OH. Bridge positions count the residues as written; N and C are the ends. Square brackets hold non-standard residues; d marks the D form. Triazole bridges read from a SMILES are 1,4-linked. Peptide text beside a SMILES is read from it. Gly(αS-SH) = O=C([C@@H](N[*:1])S[*:3])[*:2]; Tyr(3-I) = N[C@@H](Cc1ccc(O)c(I)c1)C(=O)O; Orn(N3) = [N-]=[N+]=NCCC[C@H](N)C(=O)O; Dap(N3) = [N-]=[N+]=NC[C@H](N)C(=O)O; NMeY = CN[C@@H](Cc1ccc(O)cc1)C(=O)O; Aha = [N-]=[N+]=NCC[C@H](N)C(=O)O; NMeR = CN[C@@H](CCCNC(=N)N)C(=O)O; Cit = NC(=O)NCCC[C@H](N)C(=O)O; Hpra = C#CCC[C@H](N)C(=O)O; Pra = C#CC[C@H](N)C(=O)O

Tests used:
[1] = biological target: human α9α10 nAChR (Homo sapiens, UniProt Q9GZZ6+Q9UGM1); assay: cell-based; format: cell-based
Sequence of human α9α10 nAChR (Q9UGM1 26-479 limits assumed): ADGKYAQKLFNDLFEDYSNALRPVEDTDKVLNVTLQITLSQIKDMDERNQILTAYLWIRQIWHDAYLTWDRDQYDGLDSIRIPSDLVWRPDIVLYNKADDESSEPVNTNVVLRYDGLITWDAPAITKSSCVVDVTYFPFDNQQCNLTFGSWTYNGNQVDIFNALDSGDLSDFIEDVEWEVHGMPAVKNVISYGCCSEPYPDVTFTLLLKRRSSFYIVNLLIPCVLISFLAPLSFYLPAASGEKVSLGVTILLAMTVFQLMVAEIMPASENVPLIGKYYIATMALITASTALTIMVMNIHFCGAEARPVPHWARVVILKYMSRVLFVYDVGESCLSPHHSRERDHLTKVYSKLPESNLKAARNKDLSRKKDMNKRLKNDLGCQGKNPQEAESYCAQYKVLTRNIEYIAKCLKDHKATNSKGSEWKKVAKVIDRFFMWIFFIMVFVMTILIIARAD
Sequence of human α9α10 nAChR (Q9GZZ6 25-450 limits assumed): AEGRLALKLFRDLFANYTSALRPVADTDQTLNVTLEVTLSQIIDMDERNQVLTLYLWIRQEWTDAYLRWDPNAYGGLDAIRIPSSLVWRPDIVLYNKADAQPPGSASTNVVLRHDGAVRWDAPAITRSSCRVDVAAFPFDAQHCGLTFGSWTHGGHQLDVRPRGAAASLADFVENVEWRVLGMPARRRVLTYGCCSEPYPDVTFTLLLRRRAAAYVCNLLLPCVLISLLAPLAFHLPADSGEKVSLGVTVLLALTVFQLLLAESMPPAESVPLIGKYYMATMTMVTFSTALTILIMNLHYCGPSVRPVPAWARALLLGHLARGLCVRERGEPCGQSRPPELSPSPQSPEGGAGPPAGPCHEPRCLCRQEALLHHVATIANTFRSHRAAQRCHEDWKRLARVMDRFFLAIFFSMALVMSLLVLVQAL

[2] = biological target: rat α9α10 nAChR (Rattus norvegicus, UniProt P43144+Q9JLB5); assay: cell-based; format: cell-based; conditions: α9α10 nAChR IC50 (nM) Rat
Sequence of rat α9α10 nAChR (P43144 26-479 limits assumed): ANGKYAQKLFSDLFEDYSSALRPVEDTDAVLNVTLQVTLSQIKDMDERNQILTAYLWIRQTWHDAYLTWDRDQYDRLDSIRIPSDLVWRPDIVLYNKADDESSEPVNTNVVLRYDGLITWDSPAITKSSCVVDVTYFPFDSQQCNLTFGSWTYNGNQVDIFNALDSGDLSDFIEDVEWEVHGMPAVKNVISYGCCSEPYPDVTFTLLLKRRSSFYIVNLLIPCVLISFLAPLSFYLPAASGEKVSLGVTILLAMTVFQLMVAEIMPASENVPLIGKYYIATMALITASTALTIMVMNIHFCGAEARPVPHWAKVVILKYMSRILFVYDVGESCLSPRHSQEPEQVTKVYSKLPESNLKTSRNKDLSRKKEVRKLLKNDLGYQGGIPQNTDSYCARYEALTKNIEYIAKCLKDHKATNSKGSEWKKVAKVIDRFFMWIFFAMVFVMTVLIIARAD
Sequence of rat α9α10 nAChR (Q9JLB5 25-447 limits assumed): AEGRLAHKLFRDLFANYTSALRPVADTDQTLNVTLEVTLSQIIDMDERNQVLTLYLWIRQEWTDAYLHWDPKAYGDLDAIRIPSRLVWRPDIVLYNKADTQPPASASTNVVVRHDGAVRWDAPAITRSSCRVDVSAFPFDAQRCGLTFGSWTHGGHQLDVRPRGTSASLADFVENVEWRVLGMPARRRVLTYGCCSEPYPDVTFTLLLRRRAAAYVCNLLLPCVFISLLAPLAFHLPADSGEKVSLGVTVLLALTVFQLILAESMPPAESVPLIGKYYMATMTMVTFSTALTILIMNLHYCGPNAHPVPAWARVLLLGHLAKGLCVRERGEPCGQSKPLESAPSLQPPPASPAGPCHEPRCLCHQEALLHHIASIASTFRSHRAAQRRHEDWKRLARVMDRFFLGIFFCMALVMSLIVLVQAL

Row | Structure (SMILES) | IC50 [1] [nM] | IC50 [2] [nM]
1 | C[C@@H](O)[C@@H]1NC(=O)[C@@H]2CCc3cn(nn3)CC[C@@H](C(=O)N[C@@H](Cc3ccc(O)cc3)C(=O)O)NC(=O)[C@H](CCC(N)=O)NC(=O)[C@H](Cc3c[nH]c4ccccc34)NC(=O)[C@H](CCCNC(N)=O)NC(=O)[C@H](CSSC[C@H](NC(=O)CN)C(=O)N2)NC(=O)[C@H](CCCNC(=N)N)NC(=O)[C@@H]2CCCN2C(=O)[C@H](CC(=O)O)NC1=O [Ih, L-tyrosine, glycyl-L-cysteinyl-(2S)-2-aminobutanoyl-L-threonyl-L-α-aspartyl-L-prolyl-L-arginyl-L-cysteinyl-N5-(aminocarbonyl)-L-ornithyl-L-tryptophyl-L-glutaminyl-L-(2S)-2-aminobutanoyl-cyclic (2→8)-disulfide-cyclic 3^4,12^4-(1H-1,2,3-triazole-4,1-diyl)] (H-GC[Hpra]TDPRC[Cit]WQ[Aha]Y-OH; disulfide 2-8; triazole 3-12) | 8 ± 1.5 | 8.5 ± 1.1
2 | C[C@@H](O)[C@@H]1NC(=O)[C@@H]2Cc3cn(nn3)CCC[C@@H](C(=O)N(C)[C@@H](CCCNC(=N)N)C(=O)O)NC(=O)[C@H](CCC(N)=O)NC(=O)[C@H](Cc3c[nH]c4ccccc34)NC(=O)[C@H](CCCNC(N)=O)NC(=O)[C@H](CSSC[C@H](NC(=O)CN)C(=O)N2)NC(=O)[C@H](CCCNC(=N)N)NC(=O)[C@@H]2CCCN2C(=O)[C@H](CC(=O)O)NC1=O [Iv, L-arginine, glycyl-L-cysteinyl-L-alanyl-L-threonyl-L-α-aspartyl-L-prolyl-L-arginyl-L-cysteinyl-N5-(aminocarbonyl)-L-ornithyl-L-tryptophyl-L-glutaminyl-L-norvalyl-N-methyl-cyclic (2→8)-disulfide-cyclic 3^3,12^5-(1H-1,2,3-triazole-4,1-diyl)] (H-GC[Pra]TDPRC[Cit]WQ[Orn(N3)][NMeR]-OH; disulfide 2-8; triazole 3-12) | ~100 | < 30
3 | C[C@@H](O)[C@@H]1NC(=O)[C@@H]2Cc3cn(nn3)CCC[C@@H](C(=O)N(C)[C@@H](Cc3ccc(O)cc3)C(=O)O)NC(=O)[C@H](CCC(N)=O)NC(=O)[C@H](Cc3c[nH]c4ccccc34)NC(=O)[C@H](CCCNC(N)=O)NC(=O)[C@H](CSSC[C@H](NC(=O)CN)C(=O)N2)NC(=O)[C@H](CCCNC(=N)N)NC(=O)[C@@H]2CCCN2C(=O)[C@H](CC(=O)O)NC1=O [Ir, L-tyrosine, glycyl-L-cysteinyl-L-alanyl-L-threonyl-L-α-aspartyl-L-prolyl-L-arginyl-L-cysteinyl-N5-(aminocarbonyl)-L-ornithyl-L-tryptophyl-L-glutaminyl-L-norvalyl-N-methyl-cyclic (2→8)-disulfide-cyclic 3^3,12^5-(1H-1,2,3-triazole-4,1-diyl)] (H-GC[Pra]TDPRC[Cit]WQ[Orn(N3)][NMeY]-OH; disulfide 2-8; triazole 3-12) | ~100 | 31 ± 0.7
4 | C[C@@H](O)[C@@H]1NC(=O)[C@@H]2Cc3cn(nn3)CCC[C@@H](C(=O)N[C@@H](Cc3ccc(O)cc3)C(=O)O)NC(=O)[C@H](CCC(N)=O)NC(=O)[C@H](Cc3ccc(O)c(I)c3)NC(=O)[C@H](CCCNC(N)=O)NC(=O)[C@H](CSSC[C@H](NC(=O)CN)C(=O)N2)NC(=O)[C@H](CCCNC(=N)N)NC(=O)[C@@H]2CCCN2C(=O)[C@H](CC(=O)O)NC1=O [Ib, L-tyrosine, glycyl-L-cysteinyl-L-alanyl-L-threonyl-L-α-aspartyl-L-prolyl-L-arginyl-L-cysteinyl-N5-(aminocarbonyl)-L-ornithyl-L-3-iodotyrosyl-L-glutaminyl-L-norvalyl-cyclic (2→8)-disulfide-cyclic 3^3,12^5-(1H-1,2,3-triazole-4,1-diyl)] (H-GC[Pra]TDPRC[Cit][Tyr(3-I)]Q[Orn(N3)]Y-OH; disulfide 2-8; triazole 3-12) | 37 ± 1.3 | 7
5 | C[C@@H](O)[C@@H]1NC(=O)[C@H]2NC(=O)[C@@H](NC(=O)CN)Cc3cn(nn3)CCC[C@H](NC(=O)[C@H](CCCNC(=N)N)NC(=O)[C@@H]3CCCN3C(=O)[C@H](CC(=O)O)NC1=O)C(=O)N[C@@H](CCCNC(N)=O)C(=O)N[C@@H](Cc1ccc(O)c(I)c1)C(=O)N[C@@H](CCC(N)=O)C(=O)N[C@H](C(=O)N[C@@H](Cc1ccc(O)cc1)C(N)=O)CSS2 [Ic, L-tyrosinamide, glycyl-L-alanyl-L-cysteinyl-L-threonyl-L-α-aspartyl-L-prolyl-L-arginyl-L-norvalyl-N5-(aminocarbonyl)-L-ornithyl-L-3-iodotyrosyl-L-glutaminyl-L-cysteinyl-cyclic 2^3,8^5-(1H-1,2,3-triazole-4,1-diyl)-cyclic-(3→12)-disulfide] (H-G[Pra][Gly(αS-SH)]TDPR[Orn(N3)][Cit][Tyr(3-I)]QCY-NH2; triazole 2-8; disulfide 3-12) | 152 ± 71 | 69 ± 8.5
6 | C[C@@H](O)[C@@H]1NC(=O)[C@@H]2Cc3cn(nn3)CCC[C@@H](C(=O)N[C@@H](Cc3ccc(O)cc3)C(=O)N[C@H](Cc3ccc(O)cc3)C(=O)O)NC(=O)[C@H](CCC(N)=O)NC(=O)[C@H](Cc3c[nH]c4ccccc34)NC(=O)[C@H](CCCNC(N)=O)NC(=O)[C@H](CSSC[C@H](NC(=O)CN)C(=O)N2)NC(=O)[C@H](CCCNC(=N)N)NC(=O)[C@@H]2CCCN2C(=O)[C@H](CC(=O)O)NC1=O [Io, D-tyrosine, glycyl-L-cysteinyl-L-alanyl-L-threonyl-L-α-aspartyl-L-prolyl-L-arginyl-L-cysteinyl-N5-(aminocarbonyl)-L-ornithyl-L-tryptophyl-L-glutaminyl-L-norvalyl-L-tyrosyl-cyclic (2→8)-disulfide-cyclic 3^3,12^5-(1H-1,2,3-triazole-4,1-diyl)] (H-GC[Pra]TDPRC[Cit]WQ[Orn(N3)]Y[dY]-OH; disulfide 2-8; triazole 3-12) | 59 | ≤ 10
7 | C[C@@H](O)[C@@H]1NC(=O)[C@@H]2CCCn3cc(nn3)C[C@@H](C(=O)N[C@@H](Cc3ccc(O)cc3)C(N)=O)NC(=O)[C@H](CCC(N)=O)NC(=O)[C@H](Cc3ccc(O)c(I)c3)NC(=O)[C@H](CCCNC(N)=O)NC(=O)[C@H](CSSC[C@H](NC(=O)CN)C(=O)N2)NC(=O)[C@H](CCCNC(=N)N)NC(=O)[C@@H]2CCCN2C(=O)[C@H](CC(=O)O)NC1=O [Ie, L-tyrosinamide, glycyl-L-cysteinyl-L-norvalyl-L-threonyl-L-α-aspartyl-L-prolyl-L-arginyl-L-cysteinyl-N5-(aminocarbonyl)-L-ornithyl-L-3-iodotyrosyl-L-glutaminyl-L-alanyl-cyclic (2→8)-disulfide-cyclic 3^5,12^3-(1H-1,2,3-triazole-1,4-diyl)] (H-GC[Orn(N3)]TDPRC[Cit][Tyr(3-I)]Q[Pra]Y-NH2; disulfide 2-8; triazole 3-12) | 115 ± 56 | 6.6 ± 1.7
8 | C[C@@H](O)[C@@H]1NC(=O)[C@@H]2Cc3cn(nn3)C[C@@H](C(=O)N[C@@H](Cc3ccc(O)cc3)C(N)=O)NC(=O)[C@H](CCC(N)=O)NC(=O)[C@H](Cc3ccc(O)c(I)c3)NC(=O)[C@H](CCCNC(N)=O)NC(=O)[C@H](CSSC[C@H](NC(=O)CN)C(=O)N2)NC(=O)[C@H](CCCNC(=N)N)NC(=O)[C@@H]2CCCN2C(=O)[C@H](CC(=O)O)NC1=O [If, L-tyrosinamide, glycyl-L-cysteinyl-L-alanyl-L-threonyl-L-α-aspartyl-L-prolyl-L-arginyl-L-cysteinyl-N5-(aminocarbonyl)-L-ornithyl-L-3-iodotyrosyl-L-glutaminyl-L-alanyl-cyclic (2→8)-disulfide-cyclic 3^3,12^3-(1H-1,2,3-triazole-4,1-diyl)] (H-GC[Pra]TDPRC[Cit][Tyr(3-I)]Q[Dap(N3)]Y-NH2; disulfide 2-8; triazole 3-12) | 1520 ± 116 | 12.5 ± 8.7
